The values that follow come from patent publication US20030207877A1, “Pyridoquinoxaline antivirals” (priority 2001, published 2003).

The target of one data set is T1, HCMV polymerase (Human cytomegalovirus, UniProt P08546).
T1 construct: made in house; host or cells: SF-9 insect cells infected with recombinant baculovirus
The data set can be described thus: HCMV polymerase assay (scintillation proximity assay), original and modified version. Conditions: SPA; several values per example = repeat determinations, assay version not given; read-out: CMV Polymerase IC50. The data set is classed as biochemical. On the procedure: The HCMV polymerase assay is performed using a scintillation proximity assay (SPA) as described in several references, such as N.D. Cook, et al., Pharmaceutical Manufacturing International, pages 49-53 (1992); K. Takeuchi, Laboratory Practice, September issue (1992); U.S. Pat. No. 4,568,649 (1986); which are incorporated by reference herein. Reactions are performed in 96-well plates. The assay is conducted in 100 μl volume with 5.4 mM HEPES (pH 7.5), 11.7 MM KCl, 4.5 mM MgCl2, 0.36 mg/ml BSA, and 90 nM ^3H-dTTP. Assays are run with and without CHAPS, (3-[(3-Cholamidopropyl)-dimethylammoniol-1-propane-sulfonate) at a final concentration of 2 mM. HCMV polymerase is diluted in enzyme dilution buffer containing 50% glycerol, 250 mM NaCl, 10 mM HEPES (pH 7.5), 100 μg/ml BSA, and 0.01% sodium azide. The HCMV polymerase, which is expressed in recombinant baculovirus-infected SF-9 cells and purified according to literature procedures, is added at 10% (or 10 μl) of the final reaction volume, i.e., 100 μl. Compounds are diluted in 50% DMSO and 10 μl are added to each well. Control wells contain an equivalent concentration of DMSO. Unless noted otherwise, reactions are initiated via the addition of 6 nM biotinylated poly(dA)-oligo(dT) template/primer to reaction mixtures containing the enzyme, substrate, and compounds of interest. Plates are incubated in a 25° C. or 37° C. H2O bath and terminated via the addition of 40 μl/reaction of 0.5 M EDTA (pH 8) per well. Reactions are terminated within the time-frame during which substrate incorporation is linear and varied depending upon the enzyme and conditions used, i.e., 30 min. for HCMV polymerase. Ten (10) μl of streptavidin-SPA beads (20 mg/ml in PBS/10% glycerol) are added following termination of the reaction. Plates are incubated 10 min. at 37° C., then equilibrated to room temperature, and counted on a Packard Topcount. Linear regressions are performed and IC50's are calculated using computer software.
A modified version of the above HCMV polymerase assay is performed as described above, but with the following changes: Compounds are diluted in 100% DMSO until final dilution into assay buffer. In the previous assay, compounds are diluted in 50% DMSO. 4.5 mM dithiotherotol (DTT) is added to the polymerase buffer.
A general note: SPA uses beads or plates that emit light when radiolabelled molecules are held near them.

T1 sequence (P08546 whole entry): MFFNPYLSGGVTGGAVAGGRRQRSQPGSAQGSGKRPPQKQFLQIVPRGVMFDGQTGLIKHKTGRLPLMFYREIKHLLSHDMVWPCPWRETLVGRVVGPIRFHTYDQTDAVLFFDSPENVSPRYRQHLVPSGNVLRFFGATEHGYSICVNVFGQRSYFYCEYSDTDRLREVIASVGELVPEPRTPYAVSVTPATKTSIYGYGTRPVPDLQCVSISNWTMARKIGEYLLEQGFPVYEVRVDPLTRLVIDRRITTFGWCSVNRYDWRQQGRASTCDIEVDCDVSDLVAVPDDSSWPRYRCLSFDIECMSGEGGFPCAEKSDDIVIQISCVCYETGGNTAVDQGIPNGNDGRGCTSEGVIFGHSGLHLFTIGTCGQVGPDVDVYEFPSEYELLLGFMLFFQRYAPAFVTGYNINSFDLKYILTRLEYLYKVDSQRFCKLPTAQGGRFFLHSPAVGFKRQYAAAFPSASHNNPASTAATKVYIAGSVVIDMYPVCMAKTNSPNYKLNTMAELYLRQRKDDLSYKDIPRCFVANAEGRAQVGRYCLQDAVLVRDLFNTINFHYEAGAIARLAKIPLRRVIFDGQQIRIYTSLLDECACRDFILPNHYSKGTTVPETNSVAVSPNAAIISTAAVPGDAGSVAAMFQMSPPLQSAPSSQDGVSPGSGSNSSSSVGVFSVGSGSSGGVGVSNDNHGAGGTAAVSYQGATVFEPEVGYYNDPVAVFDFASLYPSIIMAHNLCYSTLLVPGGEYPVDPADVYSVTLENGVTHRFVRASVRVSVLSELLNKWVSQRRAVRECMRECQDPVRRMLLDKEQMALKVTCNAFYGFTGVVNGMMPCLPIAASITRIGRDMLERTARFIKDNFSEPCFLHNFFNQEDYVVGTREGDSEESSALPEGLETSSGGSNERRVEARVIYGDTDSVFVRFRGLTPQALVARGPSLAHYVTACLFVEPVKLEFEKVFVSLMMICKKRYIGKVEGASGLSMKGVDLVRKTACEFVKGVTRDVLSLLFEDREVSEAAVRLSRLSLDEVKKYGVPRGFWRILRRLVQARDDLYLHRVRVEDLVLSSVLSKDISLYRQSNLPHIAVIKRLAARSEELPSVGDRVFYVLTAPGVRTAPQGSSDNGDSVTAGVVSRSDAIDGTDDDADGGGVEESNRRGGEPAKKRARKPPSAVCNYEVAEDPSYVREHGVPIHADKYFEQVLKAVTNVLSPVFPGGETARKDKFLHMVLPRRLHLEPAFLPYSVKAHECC

For the molecule `CN(Cc1cc2c3c(c1)c(=O)c(C(=O)NCc1ccc(Cl)cc1)cn3CC(=O)N2C)CC(O)c1ccoc1` (racemic) [Example 4, rac N-(4-chlorobenzyl)-9-{([2-(3-furyl)-2-hydroxyethyl](methyl)amino)methyl}-1-methyl-2,7-dioxo-2,3-dihydro-1H,7H-pyrido[1,2,3-de]quinoxaline-6-carboxamide], the melting point is 145 to 148 °C. The IC50 on HCMV polymerase came out at 570 nM.

`CN(Cc1cc2c3c(c1)c(=O)c(C(=O)NCc1ccc(Cl)cc1)cn3CC(=O)N2C)CC(O)c1ccco1` (racemic) [Example 5, rac N-(4-chlorobenzyl)-9-{([2-(2-furyl)-2-hydroxyethyl](methyl)amino)methyl}-1-methyl-2,7-dioxo-2,3-dihydro-1H,7H-pyrido[1,2,3-de]quinoxaline-6-carboxamide] came in with a melting point of 153 to 155 °C. Further, at HCMV polymerase, the IC50 turned out to be 240 nM.

Consider `Cc1cc(C(O)CN(C)Cc2cc3c4c(c2)c(=O)c(C(=O)NCc2ccc(Cl)cc2)cn4CC(=O)N3C)c(C)o1` (racemic) [Example 7, rac N-(4-chlorobenzyl)-9-{([2-(2,5-dimethyl-3-furyl)-2-hydroxyethyl](methyl)amino)methyl}-1-methyl-2,7-dioxo-2,3-dihydro-1H,7H-pyrido[1,2,3-de]quinoxaline-6-carboxamide], for which the melting point lay in the range of 157 to 160 °C. Further, the IC50 on HCMV polymerase amounted to 250 nM.

The molecule `Cc1cccc(C(O)CN(C)Cc2cc3c4c(c2)c(=O)c(C(=O)NCc2ccc(Cl)cc2)cn4CC(=O)N3C)n1` (racemic) [Example 8, rac N-(4-chlorobenzyl)-9-{([2-hydroxy-2-(6-methylpyridin-2-yl)ethyl](methyl)amino)methyl}-1-methyl-2,7-dioxo-2,3-dihydro-1H,7H-pyrido [1,2,3-de]quinoxaline-6-carboxamide] registered a melting point of 156 to 158 °C. Besides, at HCMV polymerase, the IC50 came out at 1100 nM.

`COc1cc(C(O)CN(C)Cc2cc3c4c(c2)c(=O)c(C(=O)NCc2ccc(Cl)cc2)cn4CC(=O)N3C)ccc1O` (racemic) [Example 10, rac N-(4-chlorobenzyl)-9-{([2-hydroxy-2-(4-hydroxy-3-methoxyphenyl)ethyl](methyl)amino)methyl}-1-methyl-2,7-dioxo-2,3-dihydro-1H,7H-pyrido[1,2,3-de]quinoxaline-6-carboxamide]: the melting point was 133 to 136 °C. Besides, the IC50 on HCMV polymerase is 240 nM.

The molecule `CN(Cc1cc2c3c(c1)c(=O)c(C(=O)NCc1ccc(Cl)cc1)cn3CC(=O)N2C)CC(O)Cc1ccccc1` (racemic) [Example 17, rac N-(4-chlorobenzyl)-9-{[(2-hydroxy-3-phenylpropyl)(methyl)amino]methyl}-1-methyl-2,7-dioxo-2,3-dihydro-1H,7H-pyrido [1,2,3-de]quinoxaline-6-carboxamide] gave a melting point of 121 to 127 °C. Also, the IC50 at HCMV polymerase came to 870 nM.

On to `COc1cccc(C(O)CN(C)Cc2cc3c4c(c2)c(=O)c(C(=O)NCc2ccc(Cl)cc2)cn4CC(=O)N3C)c1` (racemic) [Example 18, rac N-(4-chlorobenzyl)-9-{([2-hydroxy-2-(3-methoxyphenyl)ethyl](methyl)amino)methyl}-1-methyl-2,7-dioxo-2,3-dihydro-1H,7H-pyrido[1,2,3-de]quinoxaline-6-carboxamide], for which the melting point lay within 154 to 156 °C. Further, on HCMV polymerase, the IC50 amounted to 180 nM.

With `CN(Cc1cc2c3c(c1)c(=O)c(C(=O)NCc1ccc(Cl)cc1)cn3CC(=O)N2C)CC(O)c1ncccn1` (racemic) [Example 19, rac N-(4-chlorobenzyl)-9-{([2-hydroxy-2-pyrimidin-2-ylethyl](methyl)amino)methyl}-1-methyl-2,7-dioxo-2,3-dihydro-1H,7H-pyrido [1,2,3-de]quinoxaline-6-carboxamide], the melting point was in the range of 168 to 170 °C. For the same molecule, at HCMV polymerase, the IC50 was found to be 490 nM.

As to `CN(Cc1cc2c3c(c1)c(=O)c(C(=O)NCc1ccc(Cl)cc1)cn3CC(=O)N2C)CC(O)c1ccc(C#N)s1` (racemic) [Example 20, rac N-(4-chlorobenzyl)-9-{([2-(5-cyanothein-2-yl)-2-hydroxyethyl](methyl)amino)methyl}-1-methyl-2,7-dioxo-2,3-dihydro-1H,7H-pyrido[1,2,3-de]quinoxaline-6-carboxamide], the melting point lay within 122 to 126 °C. The IC50 on HCMV polymerase amounted to 410 nM.

The molecule `CN(Cc1cc2c3c(c1)c(=O)c(C(=O)NCc1ccc(Cl)cc1)cn3CC(=O)N2CCO)CC(O)c1cc2ccccc2o1` (racemic) [Example 26, rac 9-{([2-(1-benzofuran-2-yl)-2-hydroxyethyl](methyl)amino)methyl}-N-(4-chlorobenzyl)-1-(2-hydroxyethyl)-2,7-dioxo-2,3-dihydro-1H,7H-pyrido[1,2,3-de]quinoxaline-6-carboxamide] yielded a melting point of 195 to 197 °C. In addition, the IC50 at HCMV polymerase was found to be 880 nM.

For the molecule `CN(Cc1cc2c3c(c1)c(=O)c(C(=O)NCc1ccc(Cl)cc1)cn3CC(=O)N2C)CC(O)c1ccccc1` (centres unmarked) [Example 1, N-(4-chlorobenzyl)-9-{[(2-hydroxy-2-phenylethyl) (methyl)amino]methyl}-1-methyl-2,7-dioxo-2,3-dihydro-1H,7H-pyrido[1,2,3-de]quinoxaline-6-carboxamide], the IC50 on HCMV polymerase stood at 220 nM.

In the case of `CN(Cc1cc2c3c(c1)c(=O)c(C(=O)NCc1ccc(Cl)cc1)cn3CC(=O)N2C)C[C@@H](O)c1ccccn1` [Example 9, N-(4-chlorobenzyl)-9-{[[(2R)-2-hydroxy-2-pyridin-2-ylethyl](methyl)amino]methyl}-1-methyl-2,7-dioxo-2,3-dihydro-1H,7H-pyrido[1,2,3-de]quinoxaline-6-carboxamide], on HCMV polymerase, the IC50 was 300 nM.

For `CN(Cc1cc2c3c(c1)c(=O)c(C(=O)NCc1ccc(Cl)cc1)cn3CC(=O)N2C)C[C@@H](O)c1ccsc1` [Example 14, N-(4-chlorobenzyl)-9-{[[(2S)-2-hydroxy-2-thien-3-ylethyl](methyl)amino]methyl}-1-methyl-2,7-dioxo-2,3-dihydro-1H,7H-pyrido[1,2,3-de]quinoxaline-6-carboxamide], the melting point was 137 to 139 °C. For the same molecule, at HCMV polymerase, the IC50 came out at 190 nM.

Molecule `CN(Cc1cc2c3c(c1)c(=O)c(C(=O)NCc1ccc(Cl)cc1)cn3CC(=O)N2C)C[C@@H](O)c1nccs1` [Example 22, N-(4-chlorobenzyl)-9-{[[(2R)-2-hydroxy-2-(1,3-thiazol-2-yl)ethyl](methyl)amino]methyl}-1-methyl-2,7-dioxo-2,3-dihydro-1H,7H-pyrido[1,2,3-de]quinoxaline-6-carboxamide] came in with a melting point of 125 to 130 °C. For the same molecule, the IC50 on HCMV polymerase amounted to 490 nM.

Consider `CN(Cc1cc2c3c(c1)c(=O)c(C(=O)NCc1ccc(F)cc1)cn3CC(=O)N2C)C[C@@H](O)c1ccco1` [Example 23, N-(4-fluorobenzyl)-9-{[[(2R)-2-(2-furyl)-2-hydroxyethyl](methyl)amino]methyl}-1-methyl-2,7-dioxo-2,3-dihydro-1H,7H-pyrido[1,2,3-de]quinoxaline-6-carboxamide], for which the melting point was in the range of 150 to 152 °C. The IC50 at HCMV polymerase turned out to be 420 nM.

In turn, `CN(Cc1cc2c3c(c1)c(=O)c(C(=O)NCc1ccc(F)cc1)cn3CC(=O)N2C)C[C@@H](O)c1ccccn1` [Example 24, N-(4-fluorobenzyl)-9-{[[(2R)-2-hydroxy-2-pyridin-2-ylethyl](methyl)amino]methyl}-1-methyl-2,7-dioxo-2,3-dihydro-1H,7H-pyrido[1,2,3-de]quinoxaline-6-carboxamide] displayed a melting point of 121 to 123 °C. Further, on HCMV polymerase, the IC50 turned out to be 1870 nM.

Take `CN(Cc1cc2c3c(c1)c(=O)c(C(=O)NCc1ccc(Cl)cc1)cn3CC(=O)N2C)C[C@@H](O)c1cc2ccccc2o1` [Example 34, 9-{[[(2R)-2-(1-benzofuran-2-yl)-2-hydroxyethyl](methyl)amino]methyl)-N-(4-chlorobenzyl)-1-methyl-2,7-dioxo-2,3-dihydro-1H,7H-pyrido[1,2,3-de]quinoxaline-6-carboxamide]: the IC50 on HCMV polymerase is 4 nM.

With `CN(Cc1cc2c3c(c1)c(=O)c(C(=O)NCc1ccc(Cl)cc1)cn3CC(=O)N2C)C[C@H](O)c1cc2ccccc2o1` [Example 35, 9-{[[(2S)-2-(1-benzofuran-2-yl)-2-hydroxyethyl](methyl)amino]methyl}-N-(4-chlorobenzyl)-1-methyl-2,7-dioxo-2,3-dihydro-1H,7H-pyrido[1,2,3-de]quinoxaline-6-carboxamide], the IC50 at HCMV polymerase is 180 nM.

The term IC50 denotes the concentration at which inhibition is half-maximal. One may read the melting point as the temperature of the solid-liquid transition.
